Experimental data reported in US10100077B2, “6-aryl-9-glycosylpurines and use thereof” (UNIVERZITA PALACKEHO V OLOMOUCI, priority 2014, dated 2018).

Legend:
[1] = system: Vaccinia virus, strain IHD; conditions: cited from earlier work
[2] = system: Vaccinia virus and Herpes simplex virus; conditions: cited from earlier work
breast cancer (MCF-7) = test: Calcein AM cytotoxicity assay, MCF-7; type: cell-based; conditions: 72 hrs
Source text: (§1) One of the parameters used as the base for cytotoxic analysis is metabolic activity of viable cells, such as microtiter assay, which uses the Calcein AM, is now widely used to quantitate cell proliferation and cytotoxicity. The quantity of reduced Calcein AM corresponds to the number of viable cells in culture. The cell lines of breast cancer (MCF-7), mousse fibroblasts (NIH3T3), human erythromleukemia (K562) were used for routine screening of cytotoxicity of the compounds. The cells were maintened in Nunc/Corning 80 cm^2 plastic bottles and grown in media for cell culture (DMEM containing 5 g/l of glucose, 2 mM of glutamin, 100 U/ml of penicilin, […] of streptomycin, 10% of fetal bovine serum and sodium hydrogencarbonate). Cell suspensions were diluted according to cell types and according to expected final cell density (10^4 of cells per well according to characteristics of cell growth), pipetted 80 μl of cell suspension on 96-well microtiter plates. Innoculates were stabilized by 24 hrs preincubation at 37° C. in CO2. Particular concentrations of tested compounds were added in time zero as 20 μl aliquotto wells of microtiter plates. Usually, the compounds were diluted into six concentrations in four-fold dilution series. In routine testing, the highest well concentration was 166.7 μM, of change dependent on the substance. All drug concentrations were examined in duplicates. The incubation of cells with tested derivatives lasted 72 hrs at 37° C., 100% humidity and in the atmosphere of CO2. At the end of the incubation period, the cells were tested and analysed according to the addition of Calcein AM (Molecular probes) solution and the incubation lasted for next 1 hour. Fluorescence (FD) was measured using Labsystem FIA reader Fluorskan Ascent (Microsystems). The survival of tumor cells (The tumor cell survival-TCS) was counted according to equation: […]=(FDwell with derivative/FDcontrol well)×100%. The value of GI50, that is equal to the concentration of compound at which 50% of tumour cells are terminated. To evaluate the antitumor activity was tested toxicity of new derivatives on panel of cell lines of different histogenetic and species origin (Tab. 7, G150 concentration given in μM). […] Effective derivatives killed tumor cells in concentrations close to 0.1 to 50. None of the newly prepared compounds only reached the value.

[3] = system: mousse fibroblasts (NIH3T3); test: Calcein AM cytotoxicity assay, NIH3T3; type: cell-based, mouse; conditions: 72 hrs
Source text: as §1

[4] = system: human erythromleukemia (K562); test: Calcein AM cytotoxicity assay, K562; type: cell-based; conditions: 72 hrs
Source text: as §1

[5] = Calcein AM cytotoxicity assay, MCF-7; type: cell-based; conditions: human, MCF-7 breast cancer cells
Source text: as §1

[6] = Calcein AM cytotoxicity assay, NIH3T3; type: cell-based, mouse; conditions: mouse, NIH3T3 fibroblasts
Source text: as §1

[7] = system: skin fibroblasts BJ and keratinocytes HaCaT; test: MTT in vitro cytotoxicity test for skin cells; type: cell-based; conditions: for IC50: Homo sapiens, MTT, 72 hour treatment, BJ and HaCaT, maximal concentration 50 microM
Description: MTT assay is a standard test of toxicity based on photometric measurement of the ability of metabolically active cells to reduce MTT (3-(4,5-dimethylthiazol-2-yl)-2,5-diphenyltetrazolium bromide). Using the assay, the effects of 72 hour treatments with several concentrations of the compounds (sixfold dilution, maximal concentration=50 microM) on viability of skin fibroblasts BJ and keratinocytes HaCaT were evaluated. About 5,000 cells were seeded per well of a 96-well plate 24 hours before the treatment. DMSO vehiculum was used as a negative control. After 72 hour treatment, new medium with MTT (Sigma, M2128) was added to a final concentration of 0.5 mg/ml. After 3 hours, medium was removed and resulting formazan in the cells was dissolved in DMSO. The absorbance was measured at 570 nm (640 nm reference wavelength). The IC50 values were calculated from the dose-response curves. 6-Benzylaminopurine riboside and 6-furfurylaminopurine riboside were used as positive controls they were toxic in the MTT test.

[8] = Calcein AM cytotoxicity assay, K562; type: cell-based, human; conditions: human, K562 erythroleukemia cells
Source text: as §1

[9] = system: EpiDERM 3D model of epidermis; test: In vitro test of skin irritation in EpiDERM; type: cell-based
Description: EpiDERM™ is a 3D model of epidermis manufactured by Mattek company. The effects of tested substances are evaluated by MTT. 2 solutions (2 application forms) of the compounds 6-furfurylamino-9-β-D-arabinofuranosylpurine and 6-(3-methoxybenzylamino)-9-β-D-arabinofuranosylpurine in concentrations 1 mM a 200 microM in 0.5% DMSO/99.5% PBS were evaluated according to a standard protocol “INVITRO EpiDerm™ SKIN IRRITATION TEST”. After a preincubation of the tissues, 30 microliters of the application form solution were applied on the individual tissues. The exposition time was 60 minutes. Three tissues were used for each tested concentration as well as for controls. Following washing out of the applied solution, the tissues were incubated for 42 hour in order to allow a reparation of possible damage. In the next step, the tissue was incubated with MTT for 3 hours. The resulting formazan was extracted to isopropanol. Relative viability of the individual tissues was calculated as a percentage of viability of the average of the negative controls. Average viability of the tissues treated with 1 mM solution of the test substance was 99.3% for the compound 6-(3-methoxybenzylamino)-9-β-D-arabinofuranosylpurine and 98.0% for the compound 6-(furfurylamino)-9-β-D-arabinofuranosylpurine where 100% is an average viability of the tissues treated with the solvent only. None of the tested compounds in any of the concentrations caused any tissue damage or irritation. The compounds were evaluated as non-irritant in the tested concentrations.

[10] = system: skin fibroblasts BJ and keratinocytes HaCaT; test: SRB in vitro toxicity test; type: cell-based; conditions: Homo sapiens, 72 hour treatment, maximal concentration 50 microM
Description: SRB (sulforhodamine B) assay is a standard toxicity test based on a photometric measurement of the cellular protein content after the staining with sulphorhodamine B. Using the assay, the effects of 72 hour treatments with several concentrations of the compounds (sixfold dilution, maximal concentration=50 microM) on viability of skin fibroblasts BJ and keratinocytes HaCaT were evaluated. About 5,000 cells were seeded per well of a 96-well plate 24 hours before the treatment. DMSO vehiculum was used as a negative non-toxic control. 6-benzylaminopurine riboside a 6-furfurylaminopurin riboside were used as positive toxic controls. After three days the medium was removed and the cells fixed with 10% (wt/vol) trichloroacetic acid. After the extensive washing in distilled water, 0.4% (wt/vol) solution of SRB in acetic acid was added and the fixed cells were stained for 30 minutes. The unbound stain was washed away by distilled water and the bound SRB was solubilized in unbuffered 10 mM Tris base. Absorbance was measured at 564 nm. IC50 values were calculated from dose-response curves.

[11] = system: detached leaf segments of Triticum aestivum cv. Hereward; test: Senescence bioassay on wheat leaf segments (chlorophyll retention); conditions: for activity (%) [10^−4 mol · l^−1 BAP = 100%]: chlorophyll retention at maximum effective concentration, 96 h dark
Description: Seeds of winter wheat, Triticum aestivum cv. Hereward, were washed under running water for 24 hours and then sown on vermiculite soaked with Knop's solution. They were placed in the growth chamber at 25° C. with a 16/8 h light period at 50 μmol·m^−2·s^−1. After 7 days, the first leaf was fully developed and the second leaf had started to grow. A tip section of the first leaf, approximately 35 mm long, was removed from 5 seedlings and trimmed slightly to a combined weight of 100 mg. The basal ends of the five leaf tips were placed in the wells of a microtiter polystyrene plate containing 150 μL, of the tested derivative solution each. The entire plate was inserted into a plastic box lined with paper tissues soaked in distilled water to prevent leaf sections from drying out. After 96 h incubation in the dark at 25° C., the leaves were removed and chlorophyll extracted by heating at 80° C. for 10 min in 5 mL of 80% ethanol (v/v). The sample volume was then restored to 5 mL by the addition of 80% ethanol (v/v). The absorbance of the extract was recorded at 665 nm. In addition, chlorophyll extracts from fresh leaves and leaf tips incubated in deionised water were measured. The results are means of five replicates and the entire test was repeated twice. […] The compounds to be tested were dissolved in dimethylsulfoxide (DMSO) and the solution brought up to 10^−3M with distilled water. This stock solution was further diluted with the respective media used for the biotest to a concentration ranging from 10^−8M to 10^−4M. […] The activity obtained for 10^−4 M of BAP was postulated as 100%.

Cc1ccc(C)c(CNc2ncnc3c2ncn3C2OC(CO)C(O)C2O)c1 (centres unmarked) [2,5-dimethylbenzyl]
activity against Vaccinia virus, strain IHD [1]: low activity

Cc1cccc(C)c1CNc1ncnc2c1ncn2[C@@H]1O[C@H](CO)[C@@H](O)[C@@H]1O [2,6-dimethylbenzyl]
activity in killing Vaccinia virus and Herpes simplex virus [2]: No effect

Cc1ccc(CNc2ncnc3c2ncn3C2OC(CO)C(O)C2O)c(C)c1 (centres unmarked) [2,4-dimethylbenzyl]
activity against Vaccinia virus, strain IHD [1]: low activity

Cc1cccc(CNc2ncnc3c2ncn3[C@@H]2O[C@H](CO)[C@@H](O)[C@@H]2O)c1 [3-methylbenzylamino-9-β-D-arabinofuranosylpurine]
GI50 (breast cancer (MCF-7)): > 100 µM
GI50 [3]: > 100 µM
activity in killing Vaccinia virus and Herpes simplex virus [2]: No effect
GI50 [4]: > 100 µM

Cc1cccc(CNc2ncnc3c2ncn3C2OC(CO)C(O)C2O)c1C (centres unmarked) [2,3-dimethylbenzyl]
activity in killing Vaccinia virus and Herpes simplex virus [2]: No effect

OC[C@H]1OC(n2cnc3c(NCc4ccccc4)ncnc32)[C@H](O)[C@@H]1O (some centres unmarked) [6-benzylaminopurin9-ribosylpurine, 6-benzylamino-9-ribosylpurine, reference compound]
GI50 at 72 h [5]: 5.4 µM
GI50 at 72 h [6]: 39 µM
IC50 [7]: ≤ 3 µM
toxicity in the MTT test ([7]; positive controls): toxic
GI50 at 72 h [8]: 5.5 µM

OC[C@H]1O[C@@H](n2cnc3c(NCc4ccco4)ncnc32)[C@@H](O)[C@@H]1O [6-furfurylamino-9-β-D-arabinofuranosylpurine]
skin irritation evaluation ([9]; 1 mM and 200 microM in 0.5% DMSO/99.5% PBS): non-irritant
Average viability of the tissues ([9]; 1 mM solution, 60 minutes exposition, 100% = solvent only): 98.0%
GI50 at 72 h [5]: > 100 µM
GI50 at 72 h [6]: > 100 µM
IC50 [10]: > 50 µM
IC50 [7]: > 50 µM
GI50 at 72 h [8]: > 100 µM
activity (%) [10^−4 mol · l^−1 BAP = 100%] [11]: 193 ± 1%

OC[C@H]1O[C@@H](n2cnc3c(NCc4ccccc4)ncnc32)C[C@@H]1O [6-benzylamino-9-β-D-deoxyribosylpurine]
GI50 (breast cancer (MCF-7)): > 100 µM
GI50 [3]: > 100 µM
GI50 [4]: > 100 µM
maximum effective concentration ([11]; 96 h in the dark at 25° C.): 10^−4 mol · l^−1
activity (%) [10^−4 mol · l^−1 BAP = 100%] [11]: 178 ± 9%

Cc1ccccc1CNc1ncnc2c1ncn2[C@@H]1O[C@H](CO)[C@@H](O)[C@@H]1O [2-methylbenzylamino-9-β-D-arabinofuranosylpurine]
GI50 (breast cancer (MCF-7)): > 100 µM
GI50 [3]: > 100 µM
activity in killing Vaccinia virus and Herpes simplex virus [2]: No effect
GI50 [4]: > 100 µM

OC[C@H]1O[C@@H](n2cnc3c(NCc4cccc(Cl)c4)ncnc32)[C@@H](O)[C@@H]1O [6-(3-chlorobenzylamino)-9-β-D-arabinofuranosylpurine]
GI50 at 72 h [5]: > 100 µM
GI50 at 72 h [6]: > 100 µM
IC50 [10]: 48 µM
IC50 [7]: > 50 µM
GI50 at 72 h [8]: > 100 µM
activity (%) [10^−4 mol · l^−1 BAP = 100%] [11]: 172 ± 8%

OC[C@H]1O[C@@H](n2cnc3c(NCc4cccc(F)c4)ncnc32)C[C@@H]1O [3-fluorobenzylamino-9-β-D-2′-deoxyribosylpurine]
GI50 (breast cancer (MCF-7)): > 100 µM
GI50 [3]: > 100 µM
GI50 [4]: > 100 µM

Cc1ccc(CNc2ncnc3c2ncn3[C@@H]2O[C@H](CO)[C@@H](O)[C@@H]2O)cc1C [3,4-dimethylbenzyl]
activity in killing Vaccinia virus and Herpes simplex virus [2]: No effect

OC[C@H]1O[C@@H](n2cnc3c(NCc4cccc(F)c4)ncnc32)[C@@H](O)[C@@H]1O [6-(3-fluorobenzylamino)-9-β-D-arabinofuranosylpurine]
GI50 at 72 h [5]: > 100 µM
GI50 at 72 h [6]: > 100 µM
GI50 at 72 h [8]: > 100 µM
activity (%) [10^−4 mol · l^−1 BAP = 100%] [11]: 195 ± 6%

OC[C@H]1O[C@@H](n2cnc3c(NCc4ccc(O)cc4)ncnc32)[C@@H](O)[C@@H]1O [4-hydroxybenzylamino-9-β-D-arabinofuranosylpurine]
GI50 (breast cancer (MCF-7)): > 100 µM
GI50 [3]: 87 µM
GI50 [4]: > 100 µM

2-chloro-4-fluorobenzylamino-9-β-D-arabinofuranosylpurine
GI50 (breast cancer (MCF-7)): > 100 µM
GI50 [3]: > 100 µM
GI50 [4]: > 100 µM
